One experiment relates to HEK293 cells. The experiment in a line: Preliminary screening as mRNA vectors, EGFP mRNA transfection of HEK293 cells. The experiment is classed as cell-based. To be noted: HEK293 cells, 96-well plates, EGFP mRNA 50 ng per well; percentage of GFP fluorescent cells relative to total number of cells (Hoechst). In outline: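 Each well of HEK293 cells received 50 ng of EGFP mRNA. Efficiency was expressed as percent GFP-expressing cells over Hoechst-defined total cell number.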
Consider `CCCCCCCCCCCCCCCCCCNc1nc(NCCCCCCCCCCC)nc(NCCCN(C)C)n1` [Compound N11N18D6], for which the “Absolute mRNA transfection efficiency in HEK293 cells” value (from here on “Absolute mRNA transfection efficiency”) worked out at 0.0%.

As to `CCCCCCCCCCCCCCCCCCNc1nc(NCCCCCCCCCCC)nc(NCCN(CC)CC)n1` [Compound N11N18D7], the “Absolute mRNA transfection efficiency” value stood at 4.0%.

With `CCCCCCCCCCCCCCCCCCNc1nc(NCCCCCCCCCCC)nc(NCCCN2CCOCC2)n1` [Compound N11N18D8], the “Absolute mRNA transfection efficiency” value is 1.2%.

With `CCCCCCCCCCCCCCCCCCNc1nc(NCCCCCCCCCCC)nc(NCCCN2CCN(C)CC2)n1` [Compound N11N18D9], the “Absolute mRNA transfection efficiency” value was 1.7%.

As to `CCCCCCCCCCCCCCCCCCNc1nc(NCCCCCCCCCCC)nc(NCC2CCN(C)CC2)n1` [Compound N11N18D10], the “Absolute mRNA transfection efficiency” value is reported as 1.6%.

As for `CCCCCCCCCCCCNc1nc(NCCCCCCCCCCCC)nc(NCCN(C)C)n1` [Compound N12N12D1], the “Absolute mRNA transfection efficiency” value is on record as 0.2%.

For `CCCCCCCCCCCCNc1nc(NCCCCCCCCCCCC)nc(NCCN2CCOCC2)n1` [Compound N12N12D2], the “Absolute mRNA transfection efficiency” value came out at 1.0%.

As to `CCCCCCCCCCCCNc1nc(NCCCCCCCCCCCC)nc(NCCN2CCCC2)n1` [Compound N12N12D3], the “Absolute mRNA transfection efficiency” value is recorded as 3.8%.

Regarding `CCCCCCCCCCCCNc1nc(NCCCCCCCCCCCC)nc(NCCN2CCCCC2)n1` [Compound N12N12D4], the “Absolute mRNA transfection efficiency” value was 2.2%.

As to `CCCCCCCCCCCCNc1nc(NCCCCCCCCCCCC)nc(NCCN2CCN(C)CC2)n1` [Compound N12N12D5], the “Absolute mRNA transfection efficiency” value turned out to be 0.8%.

Consider `CCCCCCCCCCCCNc1nc(NCCCCCCCCCCCC)nc(NCCCN(C)C)n1` [Compound N12N12D6], for which the “Absolute mRNA transfection efficiency” value worked out at 0.8%.

With `CCCCCCCCCCCCNc1nc(NCCCCCCCCCCCC)nc(NCCN(CC)CC)n1` [Compound N12N12D7], the “Absolute mRNA transfection efficiency” value was 0.6%.

For the molecule `CCCCCCCCCCCCNc1nc(NCCCCCCCCCCCC)nc(NCCCN2CCOCC2)n1` [Compound N12N12D8], the “Absolute mRNA transfection efficiency” value stood at 0.3%.

`CCCCCCCCCCCCNc1nc(NCCCCCCCCCCCC)nc(NCCCN2CCN(C)CC2)n1` [Compound N12N12D9]: the “Absolute mRNA transfection efficiency” value stood at 1.5%.

Turning to `CCCCCCCCCCCCNc1nc(NCCCCCCCCCCCC)nc(NCC2CCN(C)CC2)n1` [Compound N12N12D10], the “Absolute mRNA transfection efficiency” value is on record as 0.6%.

For the molecule `CCCCCCCCCCCCCNc1nc(NCCCCCCCCCCCC)nc(NCCN(C)C)n1` [Compound N12N13D1], the “Absolute mRNA transfection efficiency” value was determined as 1.6%.

In the case of `CCCCCCCCCCCCCNc1nc(NCCCCCCCCCCCC)nc(NCCN2CCOCC2)n1` [Compound N12N13D2], the “Absolute mRNA transfection efficiency” value was found to be 0.0%.

Regarding `CCCCCCCCCCCCCNc1nc(NCCCCCCCCCCCC)nc(NCCN2CCCC2)n1` [Compound N12N13D3], the “Absolute mRNA transfection efficiency” value is 3.1%.

Another experiment relates to HEK293 cells. Description: Preliminary screening as DNA vectors, GFP transfection of HEK293 cells. To be noted: HEK293 cells; lipid/DOPE liposome with 75 ng plasmid DNA (psin-EGFP-IRES-Puro); number of cells expressing GFP divided by total number of nuclei (Hoechst). The experiment is classed as cell-based. In outline:
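Lipid + DOPE liposomes (NaOAc, pH 5.6) complexed w/ 75 ng psin-EGFP-IRES-Puro, 30 min RT; added to 3-5×10^4 HEK293/well, 37° C. Hoechst 0.2 μg/mL at 20-24 h, imaged after further 20-24 h. Efficiency = GFP+ cells / total nuclei.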
`CCCCCCCCCCCCCCCCCCNc1nc(NCCCCCCCCCCC)nc(NCCCN(C)C)n1` [Compound N11N18D6]: the “Absolute DNA transfection efficiency in HEK293 cells” value (shortened to “Absolute DNA transfection efficiency”) was found to be 0.4%.

As to `CCCCCCCCCCCCCCCCCCNc1nc(NCCCCCCCCCCC)nc(NCCN(CC)CC)n1` [Compound N11N18D7], the “Absolute DNA transfection efficiency” value was determined as 1.1%.

In the case of `CCCCCCCCCCCCCCCCCCNc1nc(NCCCCCCCCCCC)nc(NCCCN2CCOCC2)n1` [Compound N11N18D8], the “Absolute DNA transfection efficiency” value worked out at 2.2%.

Regarding `CCCCCCCCCCCCCCCCCCNc1nc(NCCCCCCCCCCC)nc(NCCCN2CCN(C)CC2)n1` [Compound N11N18D9], the “Absolute DNA transfection efficiency” value came out at 0.0%.

`CCCCCCCCCCCCCCCCCCNc1nc(NCCCCCCCCCCC)nc(NCC2CCN(C)CC2)n1` [Compound N11N18D10]: the “Absolute DNA transfection efficiency” value came to 0.2%.

For the molecule `CCCCCCCCCCCCNc1nc(NCCCCCCCCCCCC)nc(NCCN(C)C)n1` [Compound N12N12D1], the “Absolute DNA transfection efficiency” value amounted to 0.1%.

Regarding `CCCCCCCCCCCCNc1nc(NCCCCCCCCCCCC)nc(NCCN2CCOCC2)n1` [Compound N12N12D2], the “Absolute DNA transfection efficiency” value came out at 0.2%.

Regarding `CCCCCCCCCCCCNc1nc(NCCCCCCCCCCCC)nc(NCCN2CCCC2)n1` [Compound N12N12D3], the “Absolute DNA transfection efficiency” value was found to be 1.9%.

`CCCCCCCCCCCCNc1nc(NCCCCCCCCCCCC)nc(NCCN2CCCCC2)n1` [Compound N12N12D4]: the “Absolute DNA transfection efficiency” value stood at 0.4%.

As for `CCCCCCCCCCCCNc1nc(NCCCCCCCCCCCC)nc(NCCN2CCN(C)CC2)n1` [Compound N12N12D5], the “Absolute DNA transfection efficiency” value amounted to 0.4%.

Take `CCCCCCCCCCCCNc1nc(NCCCCCCCCCCCC)nc(NCCCN(C)C)n1` [Compound N12N12D6]: the “Absolute DNA transfection efficiency” value came to 0.3%.

Turning to `CCCCCCCCCCCCNc1nc(NCCCCCCCCCCCC)nc(NCCN(CC)CC)n1` [Compound N12N12D7], the “Absolute DNA transfection efficiency” value worked out at 0.1%.

Take `CCCCCCCCCCCCNc1nc(NCCCCCCCCCCCC)nc(NCCCN2CCOCC2)n1` [Compound N12N12D8]: the “Absolute DNA transfection efficiency” value was 0.0%.

In the case of `CCCCCCCCCCCCNc1nc(NCCCCCCCCCCCC)nc(NCCCN2CCN(C)CC2)n1` [Compound N12N12D9], the “Absolute DNA transfection efficiency” value is on record as 0.0%.

For `CCCCCCCCCCCCNc1nc(NCCCCCCCCCCCC)nc(NCC2CCN(C)CC2)n1` [Compound N12N12D10], the “Absolute DNA transfection efficiency” value stood at 0.5%.

Consider `CCCCCCCCCCCCCNc1nc(NCCCCCCCCCCCC)nc(NCCN(C)C)n1` [Compound N12N13D1], for which the “Absolute DNA transfection efficiency” value was determined as 1.2%.

Regarding `CCCCCCCCCCCCCNc1nc(NCCCCCCCCCCCC)nc(NCCN2CCOCC2)n1` [Compound N12N13D2], the “Absolute DNA transfection efficiency” value is 0.1%.

Consider `CCCCCCCCCCCCCNc1nc(NCCCCCCCCCCCC)nc(NCCN2CCCC2)n1` [Compound N12N13D3], for which the “Absolute DNA transfection efficiency” value is on record as 1.7%.

(Values after patent US20230123334A1, “AMINO LIPID COMPOUND, PREPARATION METHOD THEREFOR, AND APPLICATION THEREOF” (SHENZHEN SHENXIN BIOTECHNOLOGY CO., LTD., priority 2020, published 2023).)
